Here are results for 35 molecules from EPA's ToxValDB 9.5.

The subject of the data set is Rattus norvegicus. To be noted: oral.
[1] abbreviates: subchronic, gavage, M, Sprague-Dawley, Clinical Observation: Excessive salivation Decreased spontaneous locomotors Decreased respiration rate Incomplete eyelid opening + ….
[2] abbreviates: short-term, duration: 28 days, gavage, M, Sprague-Dawley, Clinical Observation: Salivation Orange urinelocomotor activity decreaserespiratory rate decrease, Incomplete eye opening Staining around ….
[3] abbreviates: short-term, duration: 28 days, gavage, F, Sprague-Dawley, Functional Observational Battery: Locomotor activity decrease.
[4] abbreviates: short-term, duration: 28 days, gavage, M, Sprague-Dawley, Functional Observational Battery: Locomotor activity decrease.
The mark [5] stands for this setting: subchronic, gavage, M, Sprague-Dawley, Clinical Observation: Salivation + Body Weight Changes: Gain increase + Food Consumption: increase + Hematology: Plt increase, Eosinophil% ….
Setting [6] is: subchronic, gavage, M, Sprague-Dawley.
[7] abbreviates: short-term, duration: 28 days, gavage, F, Sprague-Dawley, Absolute Organ Weight: Liver increase, Ovary increase, Thyroid increase + Relative Organ Weight: Ovary increase, Thyroid increase + ….
Where [8] appears, read: short-term, duration: 28 days, gavage, M, Sprague-Dawley, Absolute Organ Weight: Liver increase, Ovary increase, Thyroid increase + Relative Organ Weight: Ovary increase, Thyroid increase + ….
Setting [9] is: subchronic, gavage, M, Sprague-Dawley, Relative Organ Weight: Liver increase.

Bounds are passed on as bounds.

In the case of `CCCC[B-](c1ccccc1)(c1ccccc1)c1ccccc1.CCN(CC)c1ccc(C(=C/C=C/C(=C2C=CC(=[N+](CC)CC)C=C2)c2ccc(N(CC)CC)cc2)c2ccc(N(CC)CC)cc2)cc1`, for the setting “short-term, duration: 28 days, gavage, M/F, Blood Chemistry: GPT increase, Ch E decrease + Organ Weight: Kidney decrease, Adrenal decrease + Necropsy: Adrenal- Reddish brown + …”, the NOEL was 30 mg/kg-day.

On to `CC(C)(C)Oc1ccc(Cl)cc1` [1-Chloro-4-tert-butoxybenzene], for which, under setting [1], the no observed adverse effect level (NOAEL) (usually the highest dose or exposure tested at which no adverse effect was seen) worked out at 100 mg/kg-day and the NOEL worked out at 20 mg/kg-day.

As to `[Bi]` [Bismuth], the NOEL (short-term, duration: 28 days, gavage, Crj:CD) turned out to be 1000 mg/kg-day.

On to `CCn1cc(C(=O)O)c(=O)c2cc(F)c(N3CCNC(C)C3)c(F)c21.Cl` (stereo unspecified) [Lomefloxacin hydrochloride], for which the NOEL (chronic, duration: 91 days, gavage, M/F, Sprague-Dawley, Deaths + Clinical Observation: Prone position(dead animals) Hypothermia(dead animals) Lid closure(dead animals) Clonic convulsion(dead …) worked out at 30 mg/kg-day.

`O=C(O)c1ccc([N+](=O)[O-])cc1` [4-Nitrobenzoic acid]: the NOEL was 40 mg/kg-day (subchronic, duration: 13 weeks, diet, F, Fischer 344, Body Weight Changes: decrease + Hematology: Methemoglobin increase, Hct decrease, ,Hgb decrease, RBC decrease, Heinz body increase + Blood …) and under 60.5 mg/kg-day (subchronic, duration: 13 weeks, diet, M/F, Fischer 344, Body Weight Changes: decrease + Hematology: Methemoglobin increase, Hct decrease, ,Hgb decrease, RBC decrease, Heinz body increase + Blood …).

For `Nc1ccc(N)c2c1C(=O)c1c(N)ccc(N)c1C2=O` [C.I. Disperse Blue 1], the NOEL (subchronic, duration: 13 weeks, diet, M/F, Fischer 344, Deaths + Body Weight Changes: decrease + Histopathology: Kidneys-Calculi Urinary bladder a"Inflammation Urinary bladder a"Transitional …) is 115 mg/kg-day.

In the case of `COc1ccc([N+](=O)[O-])cc1` [p-Nitroanisole], under setting [2], the NOAEL stood at 100 mg/kg-day and the NOEL is under 100 mg/kg-day.

Consider `Nc1cc(Cl)ccc1O` [2-Amino-4-chlorophenol], for which the NOEL (subchronic, gavage, M, Sprague-Dawley, Hematology: RBC decrease, Hgb decrease, MCHC decrease, Ret increase, Hct decrease + Absolute Organ Weight: Spleen increase + Relative Organ …) came out at 50 mg/kg-day.

`O=Cc1ccc(Cl)cc1` [4-Chlorobenzaldehyde]: the NOEL is, setting by setting: (short-term, duration: 28 days, gavage, F, Sprague-Dawley, Clinical Observation: Salivation Tremor Soiled perigenital fur + Functional Observational Battery: Motor activity decrease + Body Weight …) 40 mg/kg-day; (short-term, duration: 28 days, gavage, M, Sprague-Dawley, Clinical Observation: Salivation Tremor Soiled perigenital fur + Functional Observational Battery: Motor activity decrease + Body Weight …) 200 mg/kg-day.

For the molecule `O=C(c1ccc(O)cc1)c1ccc(O)c(O)c1O` [2,3,4,4'-Tetrahydroxybenzophenone], under “subchronic, duration: 42 days, gavage, M, CD(SD), Clinical Observation: Salivation + Functional Observational Battery: Hind limb grip strength decrease + Body Weight Changes: Weight gain …”, the NOEL was under 100 mg/kg-day.

`O=S(=O)(O)c1cc(Cl)cc(N=Nc2ccc3c(O)cccc3c2O)c1[O-].[Na+]`: the NOEL (short-term, duration: 28 days, gavage, M/F, Crl:CD(SD), Deaths + Clinical Observation: Loose stool Locomotor activity increase + Body Weight Changes: decrease + Water Consumption: increase + …) was under 40 mg/kg-day.

Turning to `O=C1NC(=O)c2c(Cl)c(Cl)c(Cl)c(Cl)c21` [1H-Isoindole-1,3(2H)-dione, 4,5,6,7-tetrachloro-], under setting [3], the LOEL came to 1000 mg/kg-day and the NOEL is 300 mg/kg-day. Under setting [4], this molecule yielded an LOEL of 1000 mg/kg-day and an NOEL of 300 mg/kg-day.

On to `CC(C)(O)C(Cl)(Cl)Cl` [1,1,1-Trichloro-2-methyl-2-propanol], for which the NOEL (subchronic, gavage, M, Sprague-Dawley, Clinical Observation: Staggering gait + Functional Observational Battery: Grip strength decrease, Locomotor activity decrease + Food …) is under 10 mg/kg-day.

`CC(C)(C)NN.Cl` [Hydrazine, (1,1-dimethylethyl)-, monohydrochloride]: where the note is “subchronic, gavage, M, Sprague-Dawley, Hematology: RBC decrease, Hgb decrease, Hct decrease, MCHC decrease, MCV increase, MCH increase, R RET increase, R + Absolute Organ Weight…”, the NOEL came to 4 mg/kg-day.

Take `CC1(C)CC(O)CC(C)(C)N1[O]` [4-Hydroxy-2,2,6,6-tetramethylpiperidin-1-yl)oxidanyl]: the NOEL (short-term, duration: 28 days, gavage, M/F, Clinical Observation: Salivation + Hematology: Trend of Anemia + Absolute Organ Weight: Spleen increase, Liver increase + Histopathology: …) turned out to be 40 mg/kg-day.

`O=C1CCC(=O)O1` [Succinic anhydride]: for the setting “subchronic, duration: 13 weeks, gavage, M/F, Fischer 344, Deaths + Clinical Observation: Lethargy Distended abdomens + Body Weight Changes: decrease + Absolute Organ Weight: Liver increase + …”, the NOEL is 50 mg/kg-day.

In the case of `CCCCCCc1ccc(O)cc1O` [4-Hexylresorcinol], the NOEL (subchronic, duration: 13 weeks, gavage, M/F, Fischer 344, Deaths + Clinical Observation: Death + Body Weight Changes: decrease + Histopathology: Testis-Hypospermatogenesis Seminal vesicles-…) was under 62.5 mg/kg-day.

Turning to `COc1ccc2c3c1O[C@H]1[C@@H](O)C=C[C@H]4[C@@H](C2)N(C)CC[C@@]341` [Codeine], the NOEL reads like this: (subchronic, duration: 13 weeks, diet, F, Fischer 344, Deaths + Clinical Observation: Ruffled fur AlopeciaAbnormal posture + Body Weight Changes: decrease + Hematology: RBC decrease, Plt decrease…) under 25 mg/kg-day; (subchronic, duration: 13 weeks, diet, M/F, Fischer 344, Deaths + Clinical Observation: Ruffled fur AlopeciaAbnormal posture + Body Weight Changes: decrease + Hematology: RBC decrease, Plt decrease…) under 37.4 mg/kg-day.

With `O=[N+]([O-])c1ccc(CCl)cc1` [4-Nitrobenzyl chloride], the NOEL (short-term, duration: 28 days, gavage, M/F, Sprague-Dawley, Clinical Observation: Salivation + Functional Observational Battery: Locomotor activity decrease + Food Consumption: decrease + Water …) was under 8 mg/kg-day.

On to `COc1cc(-c2ccc(N)c(OC)c2)ccc1N.Cl.Cl` [C.I. Disperse Black 6 dihydrochloride], for which the NOEL (subchronic, duration: 13 weeks, drinking water, M/F, Fischer 344, Body Weight Changes: decrease + Water Consumption: decrease + Hematology: WBC decrease, Lympho decrease, Hct decrease, RBC decrease + Blood …) is under 170 mg/kg-day.

`CC(C)(C)c1cc(C(C)(C)C)cc(C(C)(C)C)c1` [1,3,5-Tri-tert-butylbenzene]: under setting [5], the LOAEL (in general, the lowest tested level that showed an adverse finding) worked out at 50 mg/kg-day; the LOEL was determined as 50 mg/kg-day; the NOAEL came to 10 mg/kg-day; the NOEL was 10 mg/kg-day.

With `O=S(=O)(c1cc(Br)c(OCC(Br)CBr)c(Br)c1)c1cc(Br)c(OCC(Br)CBr)c(Br)c1` (stereo unspecified) [1,1'-Sulfonylbis[3,5-dibromo-4-(2,3-dibromopropoxy)benzene]], under setting [6], the NOAEL is 1000 mg/kg-day and the NOEL was determined as 1000 mg/kg-day.

With `Cl.O=C(O)/C=C/c1ccc(Cn2ccnc2)cc1` [Ozagrel hydrochloride], under “short-term, duration: 28 days, gavage, M/F, Sprague-Dawley, Deaths + Clinical Observation: Locomotor activity decrease, Respiration rate increase + Body Weight Changes: decrease + Food Consumption: …”, the NOEL was found to be 625 mg/kg-day.

For `C=CCOC(=O)C(=C)C` [Allyl methacrylate], the NOAEL (subchronic, gavage, M, Sprague-Dawley, Clinical Observation: Hypersalivation + Body Weight Changes: Weight gain decrease + Absolute Organ Weight: Adrenal decrease, Thymus increase…) turned out to be 15 mg/kg-day.

`Cc1ccc(O)c(-n2nc3ccccc3n2)c1` [2-(2H-Benzotriazol-2-yl)-4-methylphenol]: the NOEL (subchronic, gavage, M, Sprague-Dawley, Urinalysis: Protein increase + Blood Chemistry: PL increase + Absolute Organ Weight: Liver increase + Relative Organ Weight: Liver increase…) is under 30 mg/kg-day.

`CCCCCc1cc(O)c2c(c1)OC(C)(C)[C@@H]1CCC(C)=C[C@@H]21` [Tetrahydrocannabinol]: for the setting “subchronic, duration: 13 weeks, gavage, M/F, Fischer 344, Deaths: Administration groups for 13 weeks(1/10 )(2/10 )(6/10 /10 ) + Clinical Observation: Convulsion Aggressive behavior: Dose is unknown …”, the NOEL was under 5 mg/kg-day.

For the molecule `Cl.Nc1ccc(Cl)cc1` [4-Chloroaniline hydrochloride], under “subchronic, duration: 13 weeks, gavage, M/F, Fischer 344, Deaths + Body Weight Changes: decrease + Hematology: WBC increase, Lympho increase, Hct decrease, Hgb decrease, Methemoglobin increase, RBC …”, the NOEL is under 5 mg/kg-day.

The molecule `c1ccc2n[nH]nc2c1` [1,2,3-Benzotriazole] yielded an NOEL (subchronic, gavage, M, Sprague-Dawley, Blood Chemistry: AST increase, ALT increase, TP decrease, A/G increase, PL increase, K increase) of under 30 mg/kg-day.

Take `CC(C)(C)c1cc(Cc2cc(C(C)(C)C)c(O)c(C(C)(C)C)c2)cc(C(C)(C)C)c1O` [4,4'-Methylenebis(2,6-di-t-butylphenol)]: the LOEL by setting is: under setting [7], 200 mg/kg-day; under setting [8], 1000 mg/kg-day. The NOEL reads like this: under setting [7], 40 mg/kg-day; under setting [8], 200 mg/kg-day.

In the case of `COCC(C)OCC(C)O` (stereo unspecified) [Dipropylene glycol monomethyl ether], the NOAEL (short-term, duration: 28 days, gavage, M/F, Sprague-Dawley, Clinical Observation: Tentative salivation + Relative Organ Weight: Liver increase + Histopathology: Liver-Centrilobular hypertrophy) stood at 200 mg/kg-day.

As to `[CH3][Sn]([CH3])([Cl])[Cl]` [Dimethyltin dichloride], the NOAEL (subchronic, duration: 90 days, drinking water, M/F, Sprague-Dawley, Deaths + Clinical Observation: Died or sacrificed with poor condition (All remaining animals were sacrificed by week 6) Dehydration …) was under 3.8 mg/kg-day.

As for `C=CC(=O)OCCCCCCCCCCCC` [Lauryl acrylate], under setting [9], the NOAEL turned out to be 1000 mg/kg-day and the NOEL worked out at 300 mg/kg-day.

On to `O=C1CCCCCCCCCCCN1` [Azacyclotridecan-2-one], for which, under “subchronic, duration: 90 days, gavage, M/F, Sprague-Dawley, Deaths: None (There were dead animals caused by intubation error) + Blood Chemistry: K increase, TP increase, Alb increase + Histopathology…”, the no observed adverse effect level (NOAEL) worked out at 25 mg/kg-day.

As to `COc1c2occc2cc2ccc(=O)oc12` [8-Methoxypsoralen], for the setting “subchronic, duration: 13 weeks, gavage, M/F, Fischer 344, Deaths + Clinical Observation: Rough hair coat Hunched appearance + Body Weight Changes: decrease + Absolute Organ Weight: Liver increase + …”, the NOEL is under 25 mg/kg-day.

For `Nc1ccc(S(N)(=O)=O)cc1` [Sulfanilamide], for the setting “short-term, duration: 28 days, gavage, M/F, Sprague-Dawley, Clinical Observation: Salivation + Functional Observational Battery: Auditory response decrease, Disappearance, aerial righting reflex …”, the NOEL stood at 50 mg/kg-day.
